{"source": "ChEMBL document CHEMBL5321219", "about": "“Selective degradation of cellular BRD3 and BRD4-L promoted by PROTAC molecules in six cancer cell lines” (Eur J Med Chem, 2023)", "key": {"MM1.S [1]": {"system": "MM1.S", "assay": "Downregulation of BRD3 expression in human MM1.S cells by proteomic analysis", "assay_type": "functional, cell-based"}, "MM1.S [2]": {"system": "MM1.S", "assay": "Induction of cell cycle arrest in human MM1.S cells assessed as accumulation of cells at G1 phase at 30 nM incubated for 24 hrs by flow cytometry analysis (reference value: 56.32%)", "assay_type": "functional"}, "[3]": {"molecular_target": "T1, Protein cereblon/Bromodomain-containing protein 2 (Homo sapiens) (UniProt P25440+Q96SW2)", "T1 sequence (P25440 whole entry, looked up)": "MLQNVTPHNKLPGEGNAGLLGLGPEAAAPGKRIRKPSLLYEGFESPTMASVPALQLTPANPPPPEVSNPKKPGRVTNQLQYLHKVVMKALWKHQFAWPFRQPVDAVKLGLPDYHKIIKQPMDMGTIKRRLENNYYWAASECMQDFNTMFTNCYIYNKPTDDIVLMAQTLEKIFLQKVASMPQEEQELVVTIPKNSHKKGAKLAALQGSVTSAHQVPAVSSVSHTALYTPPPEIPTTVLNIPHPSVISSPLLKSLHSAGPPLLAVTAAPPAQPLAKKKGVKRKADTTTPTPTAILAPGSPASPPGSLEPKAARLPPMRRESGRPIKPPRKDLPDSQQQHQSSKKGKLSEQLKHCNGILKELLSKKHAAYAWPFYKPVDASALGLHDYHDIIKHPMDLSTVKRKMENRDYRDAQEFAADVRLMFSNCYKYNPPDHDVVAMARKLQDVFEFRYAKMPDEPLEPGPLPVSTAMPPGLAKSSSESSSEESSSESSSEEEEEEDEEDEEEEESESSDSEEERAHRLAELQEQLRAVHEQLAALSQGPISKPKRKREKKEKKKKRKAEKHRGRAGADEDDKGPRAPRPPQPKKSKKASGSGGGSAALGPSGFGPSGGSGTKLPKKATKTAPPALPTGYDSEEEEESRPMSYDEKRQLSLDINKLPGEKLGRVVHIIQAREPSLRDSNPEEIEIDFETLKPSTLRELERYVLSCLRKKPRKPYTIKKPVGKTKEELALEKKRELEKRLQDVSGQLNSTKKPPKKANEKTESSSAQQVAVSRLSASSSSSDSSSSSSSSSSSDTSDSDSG", "T1 sequence (Q96SW2 whole entry, looked up)": "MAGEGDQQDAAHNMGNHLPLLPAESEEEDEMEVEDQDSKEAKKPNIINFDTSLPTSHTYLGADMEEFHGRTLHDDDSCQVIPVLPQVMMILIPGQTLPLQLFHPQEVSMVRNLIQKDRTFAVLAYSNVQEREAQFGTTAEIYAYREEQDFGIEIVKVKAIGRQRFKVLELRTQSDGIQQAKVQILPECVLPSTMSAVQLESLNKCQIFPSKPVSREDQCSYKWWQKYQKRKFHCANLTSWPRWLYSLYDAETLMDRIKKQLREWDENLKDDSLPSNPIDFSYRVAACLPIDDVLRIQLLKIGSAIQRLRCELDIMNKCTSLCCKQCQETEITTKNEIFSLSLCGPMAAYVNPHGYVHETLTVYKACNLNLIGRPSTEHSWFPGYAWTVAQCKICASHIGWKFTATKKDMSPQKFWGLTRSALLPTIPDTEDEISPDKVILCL", "assay": "PROTAC activity at CRBN/BRD2 in human HeLa cells assessed as induction of protein degradation at 1 to 300 nM measured after 24 hrs by Western blot analysis", "assay_type": "cell-based", "conditions": "dose 1-300 nM"}, "[4]": {"molecular_target": "T2, Protein cereblon/Bromodomain-containing protein 4 (Homo sapiens) (UniProt O60885+Q96SW2)", "T2 sequence (Q96SW2 whole entry, looked up, other chains not shown)": "as the sequence (Q96SW2 whole entry, looked up) above", "assay": "PROTAC activity at CRBN/BRD4-L in human MM1.S cells assessed as induction of protein degradation at 2 nM measured after 24 hrs by Western blot analysis", "assay_type": "cell-based"}, "[5]": {"molecular_target": "T2, Protein cereblon/Bromodomain-containing protein 4 (Homo sapiens)", "assay": "PROTAC activity at CRBN/BRD4-S in human HepG2 cells assessed as induction of protein degradation at 10 to 3000 nM measured after 24 hrs by Western blot analysis", "assay_type": "cell-based", "conditions": "dose 10-3000 nM"}, "[6]": {"molecular_target": "T2, Protein cereblon/Bromodomain-containing protein 4 (Homo sapiens)", "assay": "PROTAC activity at CRBN/BRD4-S in human HeLa cells assessed as induction of protein degradation at 1 to 300 nM measured after 24 hrs by Western blot analysis", "assay_type": "cell-based", "conditions": "dose 1-300 nM"}, "MM1.S [7]": {"system": "MM1.S", "assay": "Antiproliferative activity against human MM1.S cells assessed as cell growth inhibition measured after 4 days by CellTitre-Glo assay", "assay_type": "functional, cell-based", "conditions": "96 h"}, "[8]": {"molecular_target": "T2, Protein cereblon/Bromodomain-containing protein 4 (Homo sapiens)", "assay": "PROTAC activity at CRBN/BRD4-L in human U-937 cells assessed as induction of protein degradation by Western blot analysis", "assay_type": "cell-based"}, "[9]": {"molecular_target": "T1, Protein cereblon/Bromodomain-containing protein 2 (Homo sapiens)", "assay": "PROTAC activity at CRBN/BRD2 in human HGC-27 cells assessed as induction of protein degradation at 0.1 to 30 nM measured after 24 hrs by Western blot analysis", "assay_type": "cell-based", "conditions": "dose 0.1-30 nM"}, "[10]": {"molecular_target": "T3, Protein cereblon/Bromodomain-containing protein 3 (Homo sapiens) (UniProt Q15059+Q96SW2)", "T3 sequence (Q15059 2-726 limits assumed)": "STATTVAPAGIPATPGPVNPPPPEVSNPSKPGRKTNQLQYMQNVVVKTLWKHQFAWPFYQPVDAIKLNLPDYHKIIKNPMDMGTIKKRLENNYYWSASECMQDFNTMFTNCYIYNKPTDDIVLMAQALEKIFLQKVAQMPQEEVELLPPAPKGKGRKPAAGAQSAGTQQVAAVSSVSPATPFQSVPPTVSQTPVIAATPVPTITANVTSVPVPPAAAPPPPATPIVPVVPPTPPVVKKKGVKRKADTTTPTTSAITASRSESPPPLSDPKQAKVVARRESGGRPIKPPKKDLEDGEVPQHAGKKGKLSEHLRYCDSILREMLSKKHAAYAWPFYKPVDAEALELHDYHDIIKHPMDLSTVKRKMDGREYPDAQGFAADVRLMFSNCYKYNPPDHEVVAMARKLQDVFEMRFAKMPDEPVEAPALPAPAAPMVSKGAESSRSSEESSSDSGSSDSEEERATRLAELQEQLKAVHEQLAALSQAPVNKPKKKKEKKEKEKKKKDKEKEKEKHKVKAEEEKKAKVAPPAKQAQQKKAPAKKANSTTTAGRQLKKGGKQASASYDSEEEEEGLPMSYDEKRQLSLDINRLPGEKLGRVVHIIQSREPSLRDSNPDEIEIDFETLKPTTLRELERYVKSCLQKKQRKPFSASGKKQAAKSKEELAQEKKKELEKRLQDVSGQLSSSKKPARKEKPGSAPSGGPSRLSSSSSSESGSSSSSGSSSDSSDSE", "T3 sequence (Q96SW2 whole entry partner)": "as the sequence (Q96SW2 whole entry, looked up) above", "assay": "PROTAC activity at CRBN/BRD3 in human MM1.S cells assessed as induction of protein degradation at 30 nM measured after 3 to 6 hrs by Western blot analysis", "assay_type": "cell-based", "conditions": "time 3-6 hrs"}, "[11]": {"molecular_target": "T1, Protein cereblon/Bromodomain-containing protein 2 (Homo sapiens)", "assay": "PROTAC activity at CRBN/BRD2 in human MCF7 cells assessed as induction of protein degradation at 1 to 300 nM measured after 24 hrs by Western blot analysis", "assay_type": "cell-based", "conditions": "dose 1-300 nM"}, "[12]": {"molecular_target": "T3, Protein cereblon/Bromodomain-containing protein 3 (Homo sapiens)", "assay": "PROTAC activity at CRBN/BRD3 in human HGC-27 cells assessed as induction of protein degradation at 30 nM measured after 8 to 24 hrs by Western blot analysis", "assay_type": "cell-based", "conditions": "time 8-24 hrs"}, "[13]": {"molecular_target": "T3, Protein cereblon/Bromodomain-containing protein 3 (Homo sapiens)", "assay": "PROTAC activity at CRBN/BRD3 in human U-937 cells assessed as induction of protein degradation by Western blot analysis", "assay_type": "cell-based"}, "MM1.S [14]": {"system": "MM1.S", "assay": "Induction of cell cycle arrest in human MM1.S cells assessed as accumulation of cells at G2 phase at 300 nM incubated for 24 hrs by flow cytometry analysis (reference value: 14.68%)", "assay_type": "functional"}, "MM1.S [15]": {"system": "MM1.S", "assay": "Induction of cell cycle arrest in human MM1.S cells assessed as accumulation of cells at G2 phase at 10 nM incubated for 24 hrs by flow cytometry analysis (reference value: 14.68%)", "assay_type": "functional"}, "[16]": {"molecular_target": "T2, Protein cereblon/Bromodomain-containing protein 4 (Homo sapiens)", "assay": "PROTAC activity at CRBN/BRD4-L in human MM1.S cells assessed as induction of protein degradation at 30 nM by Western blot analysis", "assay_type": "cell-based", "conditions": "TDE = time-dependent effect"}, "MM1.S [17]": {"system": "MM1.S", "assay": "Induction of cell cycle arrest in human MM1.S cells assessed as accumulation of cells at G2 phase at 1 nM incubated for 24 hrs by flow cytometry analysis (reference value: 14.68%)", "assay_type": "functional"}, "[18]": {"molecular_target": "T3, Protein cereblon/Bromodomain-containing protein 3 (Homo sapiens)", "assay": "PROTAC activity at CRBN/BRD3 in human A549 cells assessed as induction of protein degradation measured after 24 hrs by Western blot analysis", "assay_type": "cell-based", "conditions": "dose 3-1000 nM"}, "MM1.S [19]": {"system": "MM1.S", "assay": "Induction of cell cycle arrest in human MM1.S cells assessed as accumulation of cells at S phase at 10 nM incubated for 24 hrs by flow cytometry analysis (reference value: 22.37%)", "assay_type": "functional"}, "MM1.S [20]": {"system": "MM1.S", "assay": "Induction of cell cycle arrest in human MM1.S cells assessed as accumulation of cells at G2 phase at 3 nM incubated for 24 hrs by flow cytometry analysis (reference value: 14.68%)", "assay_type": "functional"}, "MM1.S [21]": {"system": "MM1.S", "assay": "Induction of cell cycle arrest in human MM1.S cells assessed as accumulation of cells at S phase at 100 nM incubated for 24 hrs by flow cytometry analysis (reference value: 22.37%)", "assay_type": "functional"}, "[22]": {"molecular_target": "T3, Protein cereblon/Bromodomain-containing protein 3 (Homo sapiens)", "assay": "PROTAC activity at CRBN/BRD3 in human HGC-27 cells assessed as induction of protein degradation measured after 24 hrs by Western blot analysis", "assay_type": "cell-based", "conditions": "dose 0.1-30 nM"}, "[23]": {"molecular_target": "T2, Protein cereblon/Bromodomain-containing protein 4 (Homo sapiens)", "assay": "PROTAC activity at CRBN/BRD4-L in human MCF7 cells assessed as induction of protein degradation at 30 nM by Western blot analysis", "assay_type": "cell-based", "conditions": "time 1-3 hrs, TDE = time-dependent effect"}, "[24]": {"molecular_target": "T1, Protein cereblon/Bromodomain-containing protein 2 (Homo sapiens)", "assay": "PROTAC activity at CRBN/BRD2 in human MM1.S cells assessed as induction of protein degradation at 30 nM measured around 24 hrs by Western blot analysis", "assay_type": "cell-based"}, "MM1.S [25]": {"system": "MM1.S", "assay": "Downregulation of c-Myc protein expression in human MM1.S cells at 0.1 to 30 nM measured after 24 hrs by Western blot analysis", "assay_type": "functional, cell-based", "conditions": "dose 0.1-30 nM"}, "[26]": {"molecular_target": "T1, Protein cereblon/Bromodomain-containing protein 2 (Homo sapiens)", "assay": "PROTAC activity at CRBN/BRD2 in human HepG2 cells assessed as induction of protein degradation at 10 to 3000 nM measured after 24 hrs by Western blot analysis", "assay_type": "cell-based", "conditions": "dose 10-3000 nM"}, "MM1.S [27]": {"system": "MM1.S", "assay": "Downregulation of BRD2 expression in human MM1.S cells by proteomic analysis", "assay_type": "functional, cell-based"}, "[28]": {"molecular_target": "Bromodomain-containing protein 3 (Homo sapiens, UniProt Q15059)", "sequence (Q15059 whole entry, the tested form may be a part)": "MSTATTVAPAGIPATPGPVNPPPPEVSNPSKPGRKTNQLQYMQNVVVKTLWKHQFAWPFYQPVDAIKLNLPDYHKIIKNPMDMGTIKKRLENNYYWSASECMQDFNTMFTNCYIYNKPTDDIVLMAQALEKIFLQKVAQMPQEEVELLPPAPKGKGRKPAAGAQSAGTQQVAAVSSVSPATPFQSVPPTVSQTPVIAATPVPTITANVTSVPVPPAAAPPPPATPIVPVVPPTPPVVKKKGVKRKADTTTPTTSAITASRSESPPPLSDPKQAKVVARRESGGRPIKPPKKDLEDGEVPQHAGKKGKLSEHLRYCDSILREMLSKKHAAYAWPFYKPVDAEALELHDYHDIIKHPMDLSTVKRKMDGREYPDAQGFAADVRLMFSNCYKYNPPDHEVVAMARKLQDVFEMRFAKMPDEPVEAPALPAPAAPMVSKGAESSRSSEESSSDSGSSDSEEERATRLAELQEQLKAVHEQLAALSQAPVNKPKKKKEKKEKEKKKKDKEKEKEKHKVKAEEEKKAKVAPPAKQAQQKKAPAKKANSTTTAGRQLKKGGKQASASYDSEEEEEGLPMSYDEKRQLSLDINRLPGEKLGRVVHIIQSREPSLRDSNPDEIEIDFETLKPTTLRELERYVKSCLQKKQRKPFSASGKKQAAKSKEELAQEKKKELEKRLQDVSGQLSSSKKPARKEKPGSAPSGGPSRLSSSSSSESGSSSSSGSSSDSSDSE", "assay": "Binding affinity to recombinant human BRD3 BD2 (306 to 417 residues) assessed as inhibition constant by fluorescence polarization binding assay"}, "[29]": {"molecular_target": "T3, Protein cereblon/Bromodomain-containing protein 3 (Homo sapiens)", "assay": "PROTAC activity at CRBN/BRD3 in human MM1.S cells assessed as induction of protein degradation at 30 nM pretreated with lenalidomide for 2 hrs followed by compound addition and measured after 4 hrs by Western blot analysis", "assay_type": "cell-based"}, "MM1.S [30]": {"system": "MM1.S", "assay": "Induction of cell cycle arrest in human MM1.S cells assessed as accumulation of cells at S phase at 300 nM incubated for 24 hrs by flow cytometry analysis (reference value: 22.37%)", "assay_type": "functional"}, "[31]": {"molecular_target": "T2, Protein cereblon/Bromodomain-containing protein 4 (Homo sapiens)", "assay": "PROTAC activity at CRBN/BRD4-L in human MV4-11 cells assessed as induction of protein degradation at 0.1 to 30 nM measured after 24 hrs by Western blot analysis", "assay_type": "cell-based", "conditions": "dose 0.1-30 nM"}, "MM1.S [32]": {"system": "MM1.S", "assay": "Induction of cell cycle arrest in human MM1.S cells assessed as accumulation of cells at S phase at 30 nM incubated for 24 hrs by flow cytometry analysis (reference value: 22.37%)", "assay_type": "functional"}, "[33]": {"molecular_target": "T2, Protein cereblon/Bromodomain-containing protein 4 (Homo sapiens)", "assay": "PROTAC activity at CRBN/BRD4-L in human HGC-27 cells assessed as induction of protein degradation measured after 24 hrs by Western blot analysis", "assay_type": "cell-based", "conditions": "dose 0.1-30 nM"}, "[34]": {"molecular_target": "T2, Protein cereblon/Bromodomain-containing protein 4 (Homo sapiens)", "assay": "PROTAC activity at CRBN/BRD4-L in human MCF7 cells assessed as induction of protein degradation at 30 nM measured after 3 to 6 hrs by Western blot analysis", "assay_type": "cell-based", "conditions": "time 3-6 hrs"}}, "note": "Activity calls are given as the source filed them. The rule behind the calls is not given here.", "data": [{"compound": "Cc1nnc2n1-c1ccc(-c3ccc(CNCCCCc4cccc5c4CN(C4CCC(=O)NC4=O)C5=O)cc3)cc1C(Nc1ccc(Cl)cc1)CC2", "note": "(centres undefined)", "values": [{"measurement": "Activity", "setting": "MM1.S [1]", "value": "Active"}, {"measurement": "Activity", "setting": "MM1.S [2]", "value": 65.17, "unit": "%"}, {"measurement": "Activity", "setting": "[3]", "value": "inactive"}, {"measurement": "Activity", "setting": "[4]", "value": "Active"}, {"measurement": "Activity", "setting": "[5]", "value": "inactive"}, {"measurement": "Activity", "setting": "[6]", "value": "inactive"}, {"measurement": "IC50", "setting": "MM1.S [7]", "value": 95.2, "unit": "nM"}, {"measurement": "Activity", "setting": "[8]", "value": "inactive"}, {"measurement": "Activity", "setting": "[9]", "value": "inactive"}, {"measurement": "Activity", "setting": "[10]", "value": "Active"}, {"measurement": "Activity", "setting": "[11]", "value": "inactive"}, {"measurement": "Activity", "setting": "[12]", "value": "Active"}, {"measurement": "Activity", "setting": "[13]", "value": "inactive"}, {"measurement": "Activity", "setting": "MM1.S [14]", "value": 15.38, "unit": "%"}, {"measurement": "Activity", "setting": "MM1.S [15]", "value": 17.82, "unit": "%"}, {"measurement": "Activity", "setting": "[16]", "value": "Tde"}, {"measurement": "Activity", "setting": "MM1.S [17]", "value": 15.24, "unit": "%"}, {"measurement": "Activity", "setting": "[18]", "value": "Dose-Dependent Effect"}, {"measurement": "Activity", "setting": "MM1.S [19]", "value": 14.97, "unit": "%"}, {"measurement": "Activity", "setting": "MM1.S [20]", "value": 20.58, "unit": "%"}, {"measurement": "Activity", "setting": "MM1.S [21]", "value": 13.23, "unit": "%"}, {"measurement": "Activity", "setting": "[22]", "value": "Dose-Dependent Effect"}, {"measurement": "Activity", "setting": "[23]", "value": "Tde"}, {"measurement": "Activity", "setting": "[24]", "value": "Active"}, {"measurement": "Activity", "setting": "MM1.S [25]", "value": "Active"}, {"measurement": "Activity", "setting": "[26]", "value": "inactive"}, {"measurement": "Activity", "setting": "MM1.S [27]", "value": "inactive"}, {"measurement": "Ki", "setting": "[28]", "value": 2.45, "unit": "nM"}, {"measurement": "Activity", "setting": "[29]", "value": "inactive"}, {"measurement": "Activity", "setting": "MM1.S [30]", "value": 13.79, "unit": "%"}, {"measurement": "Activity", "setting": "[31]", "value": "Active"}, {"measurement": "Activity", "setting": "MM1.S [32]", "value": 15.21, "unit": "%"}, {"measurement": "Activity", "setting": "[33]", "value": "Dose-Dependent Effect"}, {"measurement": "Activity", "setting": "[34]", "value": "Active"}]}]}
